Experimental data reported in ChEMBL document CHEMBL3112508, “IV. Discovery of CXCR3 antagonists substituted with heterocycles as amide surrogates: improved PK, hERG and metabolic profiles” (Bioorg Med Chem Lett, 2014).

What was measured:
Rattus norvegicus [1] = assay: (§1) AUC in rat at 10 mg/kg, po; type: ADME, organism-based, Plasma; parameters: dose 10 mg/kg, route oral; conditions: in vivo
Rattus norvegicus [2] = assay: AUC in rat at 10 mg/kg, po after 6 hrs; type: ADME, organism-based, Plasma; parameters: time < 6 hr, dose 10 mg/kg, route oral; conditions: in vivo
[3] = molecular target: Voltage-gated inwardly rectifying potassium channel KCNH2 (Homo sapiens, UniProt Q12809); assay: Inhibition of human ERG channel by Rb efflux assay
[4] = molecular target: T1, C-X-C chemokine receptor type 3 (Homo sapiens, UniProt P49682); assay: Binding affinity to human CXCR3 receptor
T1 sequence (P49682 whole entry): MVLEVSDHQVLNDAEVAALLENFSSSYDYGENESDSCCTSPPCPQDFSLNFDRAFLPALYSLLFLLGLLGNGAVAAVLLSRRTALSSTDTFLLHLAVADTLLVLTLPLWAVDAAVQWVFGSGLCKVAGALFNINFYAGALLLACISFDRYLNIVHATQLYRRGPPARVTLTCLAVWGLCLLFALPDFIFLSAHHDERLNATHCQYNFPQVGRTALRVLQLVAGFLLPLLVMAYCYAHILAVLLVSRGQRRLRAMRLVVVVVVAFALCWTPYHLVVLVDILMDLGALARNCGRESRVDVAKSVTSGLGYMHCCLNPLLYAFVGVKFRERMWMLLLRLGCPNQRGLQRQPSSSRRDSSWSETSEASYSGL

[5] = as §1; type: ADME, organism-based, Plasma; parameters: dose 10 mg/kg, route oral; conditions: plasma

Sequence of Voltage-gated inwardly rectifying potassium channel KCNH2 (Q12809 whole entry): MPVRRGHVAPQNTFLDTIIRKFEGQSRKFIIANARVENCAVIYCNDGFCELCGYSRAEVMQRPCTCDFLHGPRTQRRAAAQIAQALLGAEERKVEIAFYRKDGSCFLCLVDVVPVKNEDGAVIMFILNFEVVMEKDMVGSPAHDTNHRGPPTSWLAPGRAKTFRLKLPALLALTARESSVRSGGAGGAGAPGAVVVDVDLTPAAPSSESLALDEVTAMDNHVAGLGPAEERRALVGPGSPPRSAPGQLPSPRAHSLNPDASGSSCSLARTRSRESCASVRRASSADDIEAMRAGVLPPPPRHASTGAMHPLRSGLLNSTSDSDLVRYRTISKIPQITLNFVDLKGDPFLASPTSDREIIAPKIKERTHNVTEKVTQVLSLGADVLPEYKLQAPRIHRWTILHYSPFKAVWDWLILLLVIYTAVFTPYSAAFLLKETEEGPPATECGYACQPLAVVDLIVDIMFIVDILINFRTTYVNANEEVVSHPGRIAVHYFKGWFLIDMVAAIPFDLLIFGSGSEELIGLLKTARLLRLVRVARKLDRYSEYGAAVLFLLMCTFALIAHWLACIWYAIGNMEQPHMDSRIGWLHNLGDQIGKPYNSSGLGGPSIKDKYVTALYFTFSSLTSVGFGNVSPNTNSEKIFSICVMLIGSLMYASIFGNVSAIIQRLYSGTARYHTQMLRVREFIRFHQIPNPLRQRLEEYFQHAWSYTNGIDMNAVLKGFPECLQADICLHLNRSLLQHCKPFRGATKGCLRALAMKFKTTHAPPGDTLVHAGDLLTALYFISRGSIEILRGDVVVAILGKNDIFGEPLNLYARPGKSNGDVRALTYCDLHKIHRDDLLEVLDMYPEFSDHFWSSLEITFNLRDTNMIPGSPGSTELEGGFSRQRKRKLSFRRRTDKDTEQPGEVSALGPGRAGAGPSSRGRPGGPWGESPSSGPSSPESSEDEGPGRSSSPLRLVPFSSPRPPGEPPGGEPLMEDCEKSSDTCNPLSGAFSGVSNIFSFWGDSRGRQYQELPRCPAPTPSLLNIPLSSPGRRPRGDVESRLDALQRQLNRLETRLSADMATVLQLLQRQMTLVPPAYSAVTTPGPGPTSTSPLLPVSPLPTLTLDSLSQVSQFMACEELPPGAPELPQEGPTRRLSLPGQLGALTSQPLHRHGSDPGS

Compound | AUC (Rattus norvegicus [1]) [uM.hr/ml] | AUC (Rattus norvegicus [2]) [uM.hr/ml] | IC50 [4] [nM] | AUC [5] [µM·h] | inhibition (INH) [3] [%]
CC[C@H]1CN(c2ncc(-c3ncc[nH]3)nc2C)[C@H](C)CN1C1CCN(C(=O)c2ccc(Cl)nc2N)CC1 | 6.7 | 0.3 | 1.8 | – | 22
CC[C@H]1CN(c2nc(N)c(-c3nnc(NCCO)o3)nc2Cl)CCN1C1CCN(C(=O)c2ccc(Cl)nc2N)CC1 | 0.1 | – | 3.9 | – | 0
CC[C@H]1CN(c2ncc(-c3noc(=O)[nH]3)cc2Cl)CCN1C1CCN(Cc2ccc(Cl)cc2F)CC1 | – | – | 760 | – | –
CC[C@H]1CN(c2ncc(-c3nnn[nH]3)cc2Cl)CCN1C1CCN(Cc2ccc(Cl)cc2F)CC1 | – | – | 1380 | – | –
CCNc1nnc(-c2cnc(N3CCN(C4CCN(C(=O)c5ccc(Cl)cc5)CC4)[C@@H](CC)C3)c(C)n2)o1 | 16.4 | 0.9 | 1.2 | – | 40
CC[C@H]1CN(c2nc(N)c(-c3nnco3)nc2Cl)CCN1C1CCN(Cc2ccc(Cl)cc2)CC1 | – | – | 5.2 | – | –
CCNc1nnc(-c2nc(Cl)c(N3CCN(C4CCN(C(=O)c5ccc(Cl)nc5N)CC4)[C@@H](CC)C3)nc2N)o1 | 16.6 | – | 1 | – | 26
CC[C@H]1CN(c2ncc(-c3nnc[nH]3)cc2Cl)CCN1C1CCN(Cc2ccc(Cl)cc2F)CC1 | – | – | 6.8 | – | –
CC[C@H]1CN(c2nc(N)c(-c3nnc(NC)o3)nc2Cl)CCN1C1CCN(C(=O)c2ccc(Cl)nc2N)CC1 | 5.5 | – | 1.6 | – | 39
CCNc1nnc(-c2cnc(N3CCN(C4CCN(C(=O)c5ccc(Cl)nc5N)CC4)[C@@H](CC)C3)c(C)n2)o1 | 2.6 | 0.1 | 1.2 | – | 12
CC[C@H]1CN(c2nc(N)c(-c3nnc(C4CC4)o3)nc2Cl)CCN1C1CCN(C(=O)c2ccc(Cl)nc2N)CC1 | – | – | 6 | – | 72
CC[C@H]1CN(c2nc(N)c(-c3nnc(NS(C)(=O)=O)o3)nc2Cl)CCN1C1CCN(C(=O)c2ccc(Cl)nc2N)CC1 | – | – | 2300 | – | 5
CC[C@H]1CN(c2ncc(-c3nnc(N)o3)nc2C)[C@H](C)CN1C1CCN(C(=O)c2ccc(Cl)cc2)CC1 | 12.7 | 1 | 6.4 | – | 0
CCNc1nnc(-c2cnc(N3C[C@H](CC)N(C4CCN(C(=O)c5ccc(Cl)cc5)CC4)C[C@H]3C)c(C)n2)o1 | 16.6 | 3.3 | 2.8 | – | 25
CCNc1nnc(-c2cnc(N3CCN(C4CCN(C(=O)c5ccc(Cl)nc5N)CC4)[C@@H](CC)C3)c(C(F)(F)F)n2)o1 | 25.3 | 4.2 | 1.5 | – | 43
CCNc1nnc(-c2cnc(N3C[C@H](CC)N(C4CCN(C(=O)c5ccc(Cl)nc5N)CC4)C[C@H]3C)c(C)n2)o1 | 15.3 | 0.8 | 3.4 | – | 4
CCNc1nnc(-c2cnc(N3C[C@H](CC)N(C4CCN(C(=O)c5ccc(Cl)cc5)CC4)C[C@H]3C)c(C(F)(F)F)n2)o1 | 9.9 | 2.3 | 1.8 | – | 27
CC[C@H]1CN(c2ncc(-c3nnc(NC)o3)nc2C)[C@H](C)CN1C1CCN(C(=O)c2ccc(Cl)cc2)CC1 | 18 | 2.4 | 6.2 | – | 17
CCNc1nnc(-c2cnc(N3C[C@H](CC)N(C4CCN(C(=O)c5ccc(Cl)nc5N)CC4)C[C@H]3C)c(C(F)(F)F)n2)o1 | 30.2 | 5.1 | 3.6 | – | 22

The next lines start with results.

AUC (Rattus norvegicus [1]) [uM.hr/ml] | AUC (Rattus norvegicus [2]) [uM.hr/ml] | IC50 [4] [nM] | AUC [5] [µM·h] | Compound | inhibition (INH) [3] [%]
3.9 | – | 4.2 | – | CC[C@H]1CN(c2nc(N)c(-c3nnc(C)o3)nc2Cl)CCN1C1CCN(C(=O)c2ccc(Cl)cc2)CC1 | 85
40.4 | 1.4 | 0.8 | – | CCNc1nnc(-c2cnc(N3CCN(C4CCN(C(=O)c5ccc(Cl)nc5N)CC4)[C@@H](CC)C3)c(Cl)n2)o1 | 14
– | – | 1.4 | 1.8 | CC[C@H]1CN(c2ncc(-c3nnco3)cc2Cl)CCN1C1CCN(Cc2ccc(Cl)cc2F)CC1 | –
– | – | 0.3 | – | CC[C@H]1CN(c2ncc(-c3ncc[nH]3)cc2Cl)CCN1C1CCN(Cc2ccc(Cl)cc2F)CC1 | –
– | – | 3.8 | – | CCNc1nnc(-c2cnc(N3CCN(C4CCN(C(=O)c5ccc(Cl)nc5N)CC4)[C@@H](CC)C3)c(CC)n2)o1 | 4
0.3 | – | 1.3 | – | CC[C@H]1CN(c2nc(N)c(-c3nnc(N)o3)nc2Cl)CCN1C1CCN(C(=O)c2ccc(Cl)nc2N)CC1 | 7
5.1 | – | – | – | CC[C@H]1CN(c2nc(N)c(C(N)=O)nc2Cl)CCN1C1CCN(Cc2ccc(Cl)cc2)CC1 | > 90
– | – | 23.6 | – | CC[C@H]1CN(c2nc(N)c(-c3nnc(N(C)C)o3)nc2Cl)CCN1C1CCN(C(=O)c2ccc(Cl)nc2N)CC1 | 67
– | – | 437 | – | CCNc1nnc(-c2cnc(N3CCN(C4CCN(C(=O)c5ccc(Cl)nc5N)CC4)[C@@H](CC)C3)c(C(C)C)n2)o1 | 8
– | – | 1.3 | – | CC[C@H]1CN(c2ncc(C3=NCCN3)cc2Cl)CCN1C1CCN(Cc2ccc(Cl)cc2F)CC1 | –
1 | – | 0.4 | – | CC[C@H]1CN(c2nc(N)c(-c3nnc(C)o3)nc2Cl)CCN1C1CCN(Cc2ccc(Cl)cc2)CC1 | –
7.3 | 0.8 | 1.6 | – | CC[C@H]1CN(c2ncc(-c3ncc[nH]3)nc2C)[C@H](C)CN1C1CCN(C(=O)c2ccc(Cl)cc2)CC1 | 36
– | – | 286 | – | CC[C@H]1CN(c2ncc(-c3ncon3)cc2Cl)CCN1C1CCN(Cc2ccc(Cl)cc2F)CC1 | –
10.2 | – | 2 | – | CC[C@H]1CN(c2nc(N)c(-c3nnc(C)o3)nc2Cl)CCN1C1CCN(C(=O)c2ccc(Cl)nc2N)CC1 | 26
2.5 | – | 2.2 | – | CC[C@H]1CN(c2nc(N)c(-c3nnc(CO)o3)nc2Cl)CCN1C1CCN(C(=O)c2ccc(Cl)nc2N)CC1 | 16
26.5 | 4.9 | 33.8 | – | CC[C@H]1CN(c2ncc(-c3nnc[nH]3)nc2C)[C@H](C)CN1C1CCN(C(=O)c2ccc(Cl)cc2)CC1 | 4
– | – | 50.5 | – | CC[C@H]1CN(c2ncc(C#N)cc2Cl)CCN1C1CCN(Cc2ccc(Cl)cc2F)CC1 | –
– | – | 24.5 | – | CCNc1nnc(-c2cnc(N3CCN(C4CCN(C(=O)c5ccc(Cl)nc5N)CC4)[C@@H](CC)C3)c(C3CC3)n2)o1 | 14
